Test system: STAT5 Y694 phosphorylation
Assay: Protein electrophoresis and blotting of STAT5 Y694 phosphorylation in Jurkat cells stimulated with human interferon beta
Assay type: cell-based
Details: for Inhibiting Ratio (0% for vehicle control): 1 hour pretreatment, 20 ng/ml human interferon beta 30 minutes, pSTAT5/GAPDH; for Example of Effect 1: Inhibiting Ability (Protein Electrophoresis and Blotting): observed pSTAT5 bands at 10 μM and 100 μM
Description: Example of Effect 1: Protein Electrophoresis and Blotting Experiment
Standard protein electrophoresis and chemiluminescence imaging equipment (Bio-Rad);
Protein lysate RIPA (Lianke Biological; Cat #WB020); Western blot transfer membrane PVDF (Millipore; Cat #IPVH00010);
Jurkat cells (ATCC American Standard Culture Center, TIB152) were cultured in a 6-well plate at a density of 1×10^6/ml with RPMI medium […] 10% fetal bovine serum in a humidified incubator at 37° C. and maintained at 5% carbon dioxide overnight. On the second day, the cells were pretreated with compounds of different concentrations (the mother liquor of the compound prepared by dimethyl sulfoxide was diluted in the medium at the required concentration) for 1 hour, and then stimulated with 20 ng/ml human interferon beta for 30 minutes, it was mixed thoroughly and then placed in an incubator at 37° C. environment. […] Then an appropriate volume of RIPA Lysis Solution was added, it was mixed well, and placed on ice for 1 hour, inverted and mixed several times in the middle. Then, the cell lysate was centrifuged at 12000 rpm at 4° C. for 10 minutes, and the supernatant was transferred to another test tube, aliquoted and stored at −20° C. until use.
An equal volume of protein lysate was mixed with an appropriate 6-fold protein loading buffer (Biyun Tian Biochemical Company P0015F), and the mixture was heated at 95 degrees for 10 minutes, after full denaturation, the protein sample was added to the polyacrylamide gel (self-made, raw material purchased from Soleibao Biotechnology Company A1010, 30% acrylamide solution), and electrophoresis was performed at the appropriate voltage for 1 hour, until the strips were fully separated. It was transferred to a polyvinylidene fluoride membrane according to standard procedures, and blocked with 5% skim milk for 1 hour, and the specified antibody was added, and it was diluted 1:1000 in 3% bovine serum albumin, and it was incubated overnight for four degrees. It was thoroughly rinsed, incubated with the secondary antibody, exposed to chemiluminescence and signals were collected. ImageJ software was used to quantify the obtained chemiluminescence results. The same area was selected, the gray values of STAT5 phosphorylation band and GAPDH band of each sample were analyzed, and the ratio of pSTAT5/GAPDH level was calculated. The value of the solvent-treated sample was 100%, and the remaining samples were converted into relative data in the same proportion, that is, the percentage corresponding to the solvent sample. […] The solvent control group was the same as the test compound group except that DMSO was used instead of the DMSO solution of the test compound. N1 (Pimozide) was a specific positive control.

Row | SMILES | Inhibiting Ratio (0% for vehicle control) (1 μM) [%] | Inhibiting Ratio (0% for vehicle control) (10 μM) [%] | Inhibiting Ratio (0% for vehicle control) (100 μM) [%] | Example of Effect 1: Inhibiting Ability (Protein Electrophoresis and Blotting)
1 | O=c1[nH]c2ccccc2n1C1CCN(CCCC(c2ccc(F)cc2)c2ccc(F)cc2)CC1 [Example N1, Pimozide, reference compound] | −0.6 | 5.9 | 95.4 | +
2 | CCC(=O)N1CCC(n2c(=O)oc3ccccc32)CC1 [Example P1, 3-(1-propionylpiperidin-4-yl)benzo[d]oxazole-2(3H)-one] |  |  |  | −
3 | O=C(Cc1ccncc1)N1CCC(n2c(=O)oc3ccccc32)CC1 [Example P3, 3-(1-(2-(pyridin-4-yl)acetyl)piperidin-4-yl)benzo[d]oxazole-2(3H)-one] |  |  |  | −
4 | O=C(Cc1ccc(C(F)(F)F)cc1)N1CCC(n2c(=O)oc3ccccc32)CC1 [Example P8, 3-(1-(2-(4-(trifluoromethyl)phenyl)acetyl)piperidin-4-yl)benzo[d]oxazole-2(3H)-one] |  |  |  | −
5 | O=c1oc2ccccc2n1-c1ccn2c(=O)cc(Cc3ccc(F)cc3)cc2c1 [Example P9, 3-(2-(4-fluorobenzyl)-4-oxo-4H-quinazine-8-yl)benzo[d]oxazole-2(3H)-one] |  |  |  | −
6 | O=C(CC(F)(F)F)N1CCC(n2c(=O)[nH]c3ccccc32)CC1 [Example X2, 1-(1-(3,3,3-trifluoropropionyl)piperidin-4-yl)-1H-benzo[d]imidazole-2(3H)-one] |  |  |  | −
7 | O=C(Cc1ccncc1)N1CCC(n2c(=O)[nH]c3ccccc32)CC1 [Example X3, 1-(1-(2-(pyridin-4-yl)acetyl)piperidin-4-yl)-1H-benzo[d]imidazole-2(3H)-one] | 17.4 | 4.7 | 87.5 | −
8 | O=C(Cc1ccccc1)N1CCC(n2c(=O)[nH]c3ccccc32)CC1 [Example X4, 1-(1-(2-phenylacetyl)piperidin-4-yl)-1H-benzo[d]imidazole-2(3H)-one] | 21.2 | 5.3 | 87.8 | −
9 | O=C(O)c1ccc(CC(=O)N2CCC(n3c(=O)[nH]c4ccccc43)CC2)cc1 [Example X6, 4-(2-oxo-2-(4-(2-oxo-2,3-dihydro-1H-benzo[d]imidazol-1-yl)piperidine-1-yl)ethyl)benzoic acid] |  |  |  | −
10 | Cc1ccc(CC(=O)N2CCC(n3c(=O)[nH]c4ccccc43)CC2)cc1 [Example X7, 1-(1-(2-(p-tolyl)acetyl)piperidin-4-yl)-1H-benzo[d]imidazole-2(3H)-one] | −27.9 | −13.6 | 88.5 | −
11 | O=c1[nH]c2ccccc2n1-c1ccn2c(=O)cc(Cc3ccc(F)cc3)cc2c1 [Example X9, 2-(4-fluorobenzyl)-8-(2-oxo-2,3-dihydro-1H-benzo[d]imidazol-1-yl)-4H-quinazine-4-one] | 6.0 | 44.3 | 100.0 | +
12 | COc1cccc2c1[nH]c(=O)n2C1CCN(C(=O)Cc2ccc(C(F)(F)F)cc2)CC1 [GEN1-003, 4-methoxy-1-(1-(2-(4-(trifluoromethyl)phenyl)acetyl)piperidin-4-yl)-1H-benzo[d]imidazole-2(3H)-one] | −10.8 | 22.2 | 94.1 | +
13 | O=C(Cc1ccc(C(F)(F)F)cc1)N1CCC(n2c(=O)[nH]c3cc(C(F)(F)F)ccc32)CC1 [GEN1-005, 5-(trifluoromethyl)-1-(1-(2-(4-(trifluoromethyl)phenyl)acetyl)piperidin-4-yl)-1H-benzo[d]imidazole-2(3H)-one] | 28.0 | 44.4 | 95.6 | +
14 | N#Cc1ccc2c(c1)[nH]c(=O)n2C1CCN(C(=O)Cc2ccc(C(F)(F)F)cc2)CC1 [GEN1-006, 2-oxo-1-(1-(2-(4-(trifluoromethyl)phenyl)acetyl)piperidin-4-yl)-2,3-dihydro-1H-benzo[d]imidazole-5-carbonitrile] | −2.8 | 35.7 | 94.8 | +
15 | COc1ccc2c(c1)[nH]c(=O)n2C1CCN(C(=O)Cc2ccc(C(F)(F)F)cc2)CC1 [GEN1-007, 5-methoxy-1-(1-(2-(4-(trifluoromethyl)phenyl)acetyl)piperidin-4-yl)-1H-benzo[d]imidazole-2(3H)-one] | 42.4 | 54.8 | 96.6 | +
16 | O=C(Cc1ccc(C(F)(F)F)cc1)N1CCC(n2c(=O)[nH]c3ccc(C(F)(F)F)cc32)CC1 [GEN1-009, 6-(trifluoromethyl)-1-(1-(2-(4-(trifluoromethyl)phenyl)acetyl)piperidin-4-yl)-1H-benzo[d]imidazole-2(3H)-one] |  |  |  | +
17 | N#Cc1ccc2[nH]c(=O)n(C3CCN(C(=O)Cc4ccc(C(F)(F)F)cc4)CC3)c2c1 [GEN1-010, 2-oxo-3-(1-(2-(4-(trifluoromethyl)phenyl)acetyl)piperidin-4-yl)-2,3-dihydro-1H-benzo[d]imidazole-5-carbonitrile] | −29.0 | 17.5 | 94.8 | +
18 | O=C(Cc1ccc(C(F)(F)F)cc1)N1CCC(n2c(=O)[nH]c3ccc(O)cc32)CC1 [GEN1-012, 6-hydroxy-1-(1-(2-(4-(trifluoromethyl)phenyl)acetyl)piperidin-4-yl)-1H-benzo[d]imidazole-2 (3H)-one] |  |  |  | +
19 | COc1cccc2[nH]c(=O)n(C3CCN(C(=O)Cc4ccc(C(F)(F)F)cc4)CC3)c12 [GEN1-015, 7-methoxy-1-(1-(2-(4-(trifluoromethyl)phenyl)acetyl)piperidin-4-yl)-1H-benzo[d]imidazole-2(3H)-one] | 9.7 | 43.4 | 95.7 | +
20 | O=C(c1ccc(C(F)(F)F)cc1)N1CCC(n2c(=O)[nH]c3ccccc32)CC1 [GEN1-017, 1-(1-(4-(trifluoromethyl)benzoyl)piperidin-4-yl)-1H-benzo[d]imidazole-2(3H)-one] |  |  |  | −
21 | O=C(CCc1ccc(C(F)(F)F)cc1)N1CCC(n2c(=O)[nH]c3ccccc32)CC1 [GEN1-018, 1-(1-(3-(4-(trifluoromethyl)phenyl)propionyl)piperidin-4-yl)-1H-benzo[d]imidazole-2(3H)-one] | −36.5 | −6.2 | 98.6 | +
22 | O=C(Cc1ccc(C(F)(F)F)cc1)N[C@H]1CC[C@@H](n2c(=O)[nH]c3ccccc32)CC1 [GEN1-021, Cis-N-(4-(2-oxo-2,3-dihydro-1H-benzo[d]imidazol-1-yl)cyclohexyl)-2-(4-(trifluoromethyl)phenyl)acetamide] | −39.8 | −26.3 | 97.6 | +
23 | O=C(Cc1ccc(C(F)(F)F)cc1)N[C@H]1CC[C@H](n2c(=O)[nH]c3ccccc32)CC1 [GEN1-022, Trans-N-(4-(2-oxo-2,3-dihydro-1H-benzo[d]imidazol-1-yl)cyclohexyl)-2-(4-(trifluoromethyl)phenyl)acetamide] | 15.8 | 29.5 | 81.2 | −

Source: patent publication US20230099441A1, “HETEROCYCLIC COMPOUND, APPLICATION THEREOF, AND COMPOSITION CONTAINING SAME” (GenEros Biopharma Ltd., priority 2019, published 2023)
